Reference: publication PMC11045757, “Group 3 medulloblastoma transcriptional networks collapse under domain specific EP300/CBP inhibition” (Nature Communications, 2024)
“And” between values parts separate entries of the source, which are not always exact repeats. Equal values may be shown once. Read-outs that look alike come from different tables or passages of the source.

How the values were obtained:
[1] = tested on: HDMB03 (HDMBO3) group 3 medulloblastoma cells; experiment: CellTiter-Glo dose-response growth assay; assay type: cell-based; conditions: HDMBO3 G3MB cell growth; read-out: IC50 (nM) HDMBO3
Experimental: CellTiter-Glo assay was performed as per the manufacturer’s instructions, at the noted timepoint after compound treatment or plating. For Kelly, TE617T, RhJT, NCIH2122, NCIH650 and 143B, 500 cells were plated in normal growth media per well in a 384-well plate (Corning). HDMB03 and MB002 cells were plated in growth media at 500 cells/well in a 384-well plate. […] Cells were incubated for the noted timepoints prior to performing CellTiter-Glo assay as per the manufacturer’s instructions, and reading plates on an Envision 2104 microplate reader.

BRD4-BD1 (BRD4-1) = target: T1, BRD4-BD1 (BRD4-1) (Homo sapiens, UniProt O60885); experiment: Differential scanning fluorimetry (DSF) thermal shift; assay type: binding; conditions: DSF; for ∆Tm (°C) BRD4-1: 5 μM protein, 100 μM compound, three independent experiments, average ± SD
T1 construct: BRD4-BD1 (residues 44-168); 6xHis (cleaved yes); host or cells: E. coli BL21 (DE3) RIL
Experimental: (§1) At OD600 of 0.6, the culture was cooled down to 18 °C and induced with 0.1 mM IPTG. After 18 h growth, the culture was harvested by centrifugation at 6000 × g for 25 min and stored at -80 °C. Harvested cell pellets were re-suspended in 50 mM Na/K phosphate buffer (pH 7.4) containing 100 mM NaCl, 40 mM imidazole, 0.01% w/v lysozyme and 0.01% v/v Triton X-100 at 4 °C for 1 h, subjected to sonication and the lysate was clarified by centrifugation (30,000 × g for 45 min at 4 °C). Proteins were purified by FPLC at 4 °C using columns and chromatography materials from GE Healthcare. […] Proteins were purified to homogeneity by size exclusion chromatography using Superdex 75 equilibrated with elution buffer (50 mM HEPES pH 7.5, 100 mM NaCl, 2 mM DTT). All BRDs eluted as monomeric protein and were of crystallization grade quality (>95% purity as judged by SDS-PAGE). Pool fractions were combined, concentrated to 10–12 mg/ml, and aliquots were flash-frozen in liquid N2 and stored at −80 °C.
(§2) DSF experiments were performed with an Applied Biosystem StepOnePlus real-time PCR system (Thermo Fisher Scientific) using 96-well format plates, assayed in quadruplicate. For thermal shift determination, 5 μM protein was mixed with 100 μM compound in 50 mM HEPES, pH 7.5, 150 mM NaCl, 2 mM DTT, 2% DMSO, 5X SYPRO Orange (Thermo Fisher Scientific) in 20 μL reaction volumes. Reaction mixtures were heated from 25 to 95 °C at 1 °C/min with fluorescence readings every 0.5 °C at 610 nm. The observed thermal shift (ΔTm) was recorded as the difference between the Tm of sample and DMSO reference wells.

EP300 bromodomain = target: T2, EP300 bromodomain (Homo sapiens, UniProt Q09472); experiment: as above; assay type: binding; conditions: DSF
T2 construct: 6xHis (cleaved yes); host or cells: E. coli BL21 (DE3) RIL
T2 sequence (Q09472 1048-1161): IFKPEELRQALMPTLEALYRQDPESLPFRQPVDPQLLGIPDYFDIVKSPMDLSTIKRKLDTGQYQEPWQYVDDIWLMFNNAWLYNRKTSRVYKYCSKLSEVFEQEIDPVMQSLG
Experimental: as §1, §2

CBP bromodomain [2] = target: T3, CBP bromodomain (Homo sapiens, UniProt Q92793); experiment: as above; assay type: binding; conditions: for ∆Tm (°C) CBP / ΔTm (°C) CBP: DSF; for ∆Tm (°C) CBP: 5 μM protein, 100 μM compound, three independent experiments, average ± SD
T3 construct: CBP (residues 1081-1197); 6xHis (cleaved yes); host or cells: E. coli BL21 (DE3) RIL
Experimental: as §1, with “After” for “At OD600 of 0.6, the culture was cooled down to 18 °C and induced with 0.1 mM IPTG. After”, “All BRDs eluted as monomeric protein and were of crystallization grade quality (>95% purity as judged by SDS-PAGE).” left out
(§3) DSF experiments were performed with an Applied Biosystem StepOnePlus real-time PCR system (Thermo Fisher Scientific) using 96-well format plates, assayed in quadruplicate. For thermal shift determination, 5 μM protein was mixed with 100 μM compound in 50 mM HEPES, pH 7.5, 150 mM NaCl, 2 mM DTT, 2% DMSO, 5X SYPRO Orange (Thermo Fisher Scientific) in 20 μL reaction volumes.

CBP bromodomain [3] = experiment: as above; assay type: binding; conditions: ΔTm (CBP)/ΔTm(BRD4)
Experimental: as §1, with “After” for “At OD600 of 0.6, the culture was cooled down to 18 °C and induced with 0.1 mM IPTG. After”, “All BRDs eluted as monomeric protein and were of crystallization grade quality (>95% purity as judged by SDS-PAGE).” left out
as §3

[4] = target: GFP-tagged CBP bromodomain (Homo sapiens, UniProt Q92793); experiment: Microscale thermophoresis (MST); assay type: binding; conditions: for Response (Dose Response Curve): MST raw response
Experimental: MST experiments were performed in a Monolith NT.115 Pico instrument (NanoTemper Technologies) following published procedures. […] MST traces were recorded using standard parameters: 5 s MST power off, 30 s MST power on and 5 s MST power off. Measurements were taken at -1-0 s (cold region) and 10 s (hot region) and data were analyzed using the NTAnalysis software.

Chain of GFP-tagged CBP bromodomain (Q92793 1085-1192 limits assumed): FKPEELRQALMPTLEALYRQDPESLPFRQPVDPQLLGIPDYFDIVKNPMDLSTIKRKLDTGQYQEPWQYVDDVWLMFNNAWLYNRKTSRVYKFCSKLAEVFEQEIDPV
T3 sequence (Q92793 1081-1197): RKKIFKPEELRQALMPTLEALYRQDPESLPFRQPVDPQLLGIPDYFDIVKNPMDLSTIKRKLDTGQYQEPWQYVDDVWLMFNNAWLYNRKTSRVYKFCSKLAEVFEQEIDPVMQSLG

- IC50 [1]: 156 ± 63 nM
- ∆Tm (°C) BRD4-1 (BRD4-BD1 (BRD4-1)): 5.6 ± 0.18 °C
- ∆Tm (°C) BRD4-1 (BRD4-BD1 (BRD4-1); listed as iCBP-1): 5.6 °C
- ΔTm (°C) BRD4-BD1 (BRD4-BD1 (BRD4-1); Figure 3A, BRD4-BD1): 5.6 °C
- ∆Tm (°C) EP300 (EP300 bromodomain; 5 μM protein, 100 μM compound, three independent experiments, average ± SD): 15.2 ± 0.43 °C
- ΔTm (°C) EP300 (EP300 bromodomain; Figure 3B, EP300): 15.2 °C
- ∆Tm (°C) CBP (CBP bromodomain [2]): 15.7 ± 0.13 °C
- ∆Tm (°C) CBP (CBP bromodomain [2]; listed as iCBP-1): 15.7 °C
- ΔTm (°C) CBP (CBP bromodomain [2]; Figure 3A, CBP bromodomain): 15.7 °C
- ΔTm (°C) CBP (CBP bromodomain [2]; Figure 3B, CBP): 15.7 °C
- DSF ΔTm (°C) (CBP bromodomain [2]; Figure 3C, DSF (values equal CBP column)): 15.7 °C
- Response (Dose Response Curve) ([4]; Dose 7.6294e-11, single replicate run, listed as iCBP-1): 853.223 and 857.66 and 855.66
- Response (Dose Response Curve) ([4]; Dose 1.52588e-10, single replicate run, listed as iCBP-1): 855.736 and 856.23 and 855.826
- Response (Dose Response Curve) ([4]; Dose 3.05176e-10, single replicate run, listed as iCBP-1): 853.445 and 855.178 and 855.494
- Response (Dose Response Curve) ([4]; Dose 6.10352e-10, single replicate run, listed as iCBP-1): 856.427 and 856.757 and 853.917
- Response (Dose Response Curve) ([4]; Dose 1.2207e-9, single replicate run, listed as iCBP-1): 856.018 and 857.281 and 855.418
- Response (Dose Response Curve) ([4]; Dose 2.44141e-9, single replicate run, listed as iCBP-1): 854.643 and 857.895 and 854.619
- Response (Dose Response Curve) ([4]; Dose 4.88281e-9, single replicate run, listed as iCBP-1): 855.403 and 855.962 and 856.044
- Response (Dose Response Curve) ([4]; Dose 9.76563e-9, single replicate run, listed as iCBP-1): 854.71 and 855.519 and 854.572
- Response (Dose Response Curve) ([4]; Dose 1.95313e-8, single replicate run, listed as iCBP-1): 854.478 and 856.32 and 852.68
- Response (Dose Response Curve) ([4]; Dose 3.90625e-8, single replicate run, listed as iCBP-1): 853.805 and 853.804 and 852.557
- Response (Dose Response Curve) ([4]; Dose 7.8125e-8, single replicate run, listed as iCBP-1): 851.041 and 853.265 and 851.047
- Response (Dose Response Curve) ([4]; Dose 1.5625e-7, single replicate run, listed as iCBP-1): 849.783 and 852.179 and 850.016
- Response (Dose Response Curve) ([4]; Dose 3.125e-7, single replicate run, listed as iCBP-1): 847.514 and 851.349 and 849.816
- Response (Dose Response Curve) ([4]; Dose 6.25e-7, single replicate run, listed as iCBP-1): 850.56 and 852.488 and 847.121
- Response (Dose Response Curve) ([4]; Dose 1.25e-6, single replicate run, listed as iCBP-1): 851.062 and 851.994 and 849.472
- Response (Dose Response Curve) ([4]; Dose 2.5e-6, single replicate run, listed as iCBP-1): 852.183 and 853.073 and 851.642
- Kd ([4]; MST, single replicate run, target clGFP-CBPBRD, TargetConcentration 5e-8, MST-Power Medium, unit inferred, listed as iCBP-1, read-out: Kd (Fit Results, Fit Model: Kd)): 11.6 nM and 7.49 nM and 11.5 nM
- Bound (Fit Results) ([4]; fitted MST response of bound state, single replicate run, target clGFP-CBPBRD 5e-8, listed as iCBP-1): 850.224 and 852.177 and 849.456
- Unbound (Fit Results) ([4]; fitted MST response of unbound state, single replicate run, target clGFP-CBPBRD 5e-8, listed as iCBP-1): 855.236 and 856.83 and 855.351
- Kd ([4]; three independent MST experiments, average ± SD, read-out: Kd (nM) CBP): 12.1 ± 4.9 nM
SMILES: COC1CCC(n2c(C3CCCC(=O)N3c3cccc(C(F)F)c3)nc3cc(-c4c(C)noc4C)ccc32)CC1 (centres unmarked) [Compound 3]
- Ratio CBP/BRD4 of ∆Tm (CBP bromodomain [3]): 2.8
